Source: paper PMC5353671, “A bacterial aromatic aldehyde dehydrogenase critical for the efficient catabolism of syringaldehyde” (Scientific Reports, 2017)

Assays:
SLG_38120 = target: T1, SLG_38120 (Sphingobium sp. SYK-6, UniProt G2IRC1); assay: HPLC, E. coli cell extract; type: biochemical; details: 100 μM substrate, 500 μM NAD+, 30 °C
T1 construct: gene feaB; coding region in pET21a(+), extract of E. coli BL21(DE3)
T1 sequence (G2IRC1 1-493): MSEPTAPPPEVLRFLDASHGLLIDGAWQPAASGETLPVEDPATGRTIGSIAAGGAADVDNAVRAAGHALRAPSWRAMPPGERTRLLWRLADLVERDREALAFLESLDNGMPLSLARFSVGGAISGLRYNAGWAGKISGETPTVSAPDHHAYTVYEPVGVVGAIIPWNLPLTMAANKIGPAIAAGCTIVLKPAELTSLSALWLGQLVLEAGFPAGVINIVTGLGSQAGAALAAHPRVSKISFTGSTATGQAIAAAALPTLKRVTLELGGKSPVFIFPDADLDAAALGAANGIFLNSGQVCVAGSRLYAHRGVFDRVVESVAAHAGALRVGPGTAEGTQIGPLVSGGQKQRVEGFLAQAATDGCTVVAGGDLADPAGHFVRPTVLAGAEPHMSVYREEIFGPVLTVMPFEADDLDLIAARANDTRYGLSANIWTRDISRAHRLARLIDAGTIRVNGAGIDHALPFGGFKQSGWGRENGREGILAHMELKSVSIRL

SLG_11410 = target: T2, SLG_11410 (Sphingobium sp. SYK-6, UniProt G2IPY8); assay: HPLC, E. coli cell extract; type: biochemical; details: 100 μM substrate, 500 μM NAD+, 30 °C
T2 construct: coding region in pET21a(+), extract of E. coli BL21(DE3)
T2 sequence (G2IPY8 1-498): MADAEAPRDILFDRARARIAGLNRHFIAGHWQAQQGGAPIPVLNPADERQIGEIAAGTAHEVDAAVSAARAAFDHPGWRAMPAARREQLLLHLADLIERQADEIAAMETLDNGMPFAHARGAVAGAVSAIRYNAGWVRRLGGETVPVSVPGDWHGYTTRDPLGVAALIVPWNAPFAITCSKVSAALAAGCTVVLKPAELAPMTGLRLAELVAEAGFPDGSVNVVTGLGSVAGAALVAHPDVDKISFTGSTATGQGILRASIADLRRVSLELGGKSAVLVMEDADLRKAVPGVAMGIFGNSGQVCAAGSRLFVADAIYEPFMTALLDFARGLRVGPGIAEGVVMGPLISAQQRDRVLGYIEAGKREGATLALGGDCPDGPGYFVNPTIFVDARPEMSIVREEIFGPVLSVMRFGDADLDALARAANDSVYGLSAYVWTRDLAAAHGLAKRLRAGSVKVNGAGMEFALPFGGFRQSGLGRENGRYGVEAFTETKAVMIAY

With `COc1cc(C=O)cc(OC)c1O` [syringaldehyde] the specific activity (SLG_38120) was “All these aromatic ALDH gene products converted SN into syringate” and the specific activity (SLG_11410) was “All these aromatic ALDH gene products converted SN into syringate”.
